How the values were obtained:
[1] = test system: HIV-1 F227L + V106A double-mutant strain; experiment: microbe, parasite or virus in culture; format: cell-based; details: for SI F227L + V106A: CC50/EC50; for EC50: Human immunodeficiency virus 1, MT4, read-out: EC50 F227L + V106A; for RF F227L + V106A: ratio of EC50 (resistant viral strain)/EC50 (wild-type viral strain)
[2] = test system: HIV-1 Y181C mutant strain; experiment: microbe, parasite or virus in culture; format: cell-based; details: for SI Y181C: CC50/EC50; for EC50: Human immunodeficiency virus 1, MT4, read-out: EC50 Y181C; for RF Y181C: ratio of EC50 (resistant viral strain)/EC50 (wild-type viral strain)
[3] = Cytotoxicity in mock-infected MT-4 cell cultures, MTT method; details: human, mock-infected MT-4 cells
[4] = test system: HIV-1 L100I mutant strain; experiment: microbe, parasite or virus in culture; format: cell-based; details: for SI L100I: CC50/EC50; for EC50: Human immunodeficiency virus 1, MT4, read-out: EC50 L100I; for RF L100I: ratio of EC50 (resistant viral strain)/EC50 (wild-type viral strain)
WT HIV-1 RT = WT HIV-1 RT (Human immunodeficiency virus type 1 group M subtype B, UniProt P03366); experiment: Recombinant HIV-1 RT inhibitory assay; format: biochemical
[5] = test system: HIV-1 Y188L mutant strain; experiment: microbe, parasite or virus in culture; format: cell-based; details: for SI Y188L: CC50/EC50; for EC50: Human immunodeficiency virus 1, MT4, read-out: EC50 Y188L; for RF Y188L: ratio of EC50 (resistant viral strain)/EC50 (wild-type viral strain)
[6] = test system: HIV-1 RES056 (K103N + Y181C) double-mutant strain; experiment: microbe, parasite or virus in culture; format: cell-based; details: for SI RES056: CC50/EC50; for EC50: Human immunodeficiency virus 1, MT4, read-out: EC50 RES056; for RF RES056: ratio of EC50 (resistant viral strain)/EC50 (wild-type viral strain)
HIV-2 strain (ROD) = experiment: Anti-HIV-2; format: cell-based; details: for EC50: Human immunodeficiency virus 2, MT4, read-out: EC50 ROD; for SI ROD: ratio of CC50/EC50
WT HIV-1 (IIIB) = experiment: microbe, parasite or virus in culture; format: cell-based; details: for EC50: Human immunodeficiency virus 1, IIIB, MT4, read-out: EC50 IIIB; for SI IIIB: ratio of CC50/EC50
[7] = test system: HIV-1 K103N mutant strain; experiment: microbe, parasite or virus in culture; format: cell-based; details: for SI K103N: CC50/EC50; for EC50: Human immunodeficiency virus 1, MT4, read-out: EC50 K103N; for RF K103N: ratio of EC50 (resistant viral strain)/EC50 (wild-type viral strain)
[8] = test system: HIV-1 E138K mutant strain; experiment: microbe, parasite or virus in culture; format: cell-based; details: for SI E138K: CC50/EC50; for EC50: Human immunodeficiency virus 1, MT4, read-out: EC50 E138K; for RF E138K: ratio of EC50 (resistant viral strain)/EC50 (wild-type viral strain)

Compound	SI F227L + V106A [1]	EC50 [1]	RF F227L + V106A [1]	SI Y181C [2]	EC50 [2]	RF Y181C [2]	CC50 at 5 days [3]	SI L100I [4]	EC50 [4]	RF L100I [4]	IC50 (WT HIV-1 RT)	SI Y188L [5]	EC50 [5]	RF Y188L [5]	SI RES056 [6]	EC50 [6]	RF RES056 [6]	EC50 (HIV-2 strain (ROD))	SI ROD (HIV-2 strain (ROD))	EC50 (WT HIV-1 (IIIB))	also measured
Cc1cc(-c2ccoc2)cc(C)c1Oc1nc(NC2CCN(Cc3ccc(S(N)(=O)=O)cc3)CC2)nc2ccsc12 [Compound 13, 4-((4-((4-(4-(Furan-3-yl)-2,6-dimethylphenoxy)thieno[3,2-d]pyrimidin-2-yl)amino)piperidin-1-yl)methyl)benzenesulfonamide]	44	358 ± 18.4 nM	5.6	79	197 ± 16.1 nM	3.1	15600 ± 4970 nM	84	186 ± 29.4 nM	2.9	265 ± 59 nM	117	133 ± 3.35 nM	2.1	13	1190 ± 184 nM	18.8	6800 ± 1220 nM	2	63.6 ± 11.4 nM	SI IIIB (WT HIV-1 (IIIB)): 246; SI K103N [7]: 249; EC50 [7]: 62.9 ± 10.4 nM; RF K103N [7]: 1.0; SI E138K [8]: 81; EC50 [8]: 193 ± 14.8 nM; RF E138K [8]: 3.0
Cc1cc(-c2ccc(F)cc2)cc(C)c1Oc1nc(NC2CCN(Cc3ccc(S(N)(=O)=O)cc3)CC2)nc2ccsc12 [Compound 23, 4-((4-((4-((4′-Fluoro-3,5-dimethyl-[1,1′-biphenyl]-4-yl)oxy)thieno[3,2-d]pyrimidin-2-yl)amino)piperidin-1-yl)methyl)benzenesulfonamide]	363	46.6 ± 15.5 nM	4.1	377	44.8 ± 5.26 nM	4.0	16900 ± 4770 nM	372	45.4 ± 5.26 nM	4.0	211 ± 15 nM	326	51.8 ± 8.47 nM	4.6	43	388 ± 76.2 nM	34.3	3280 ± 1260 nM	5	11.3 ± 2.07 nM	SI IIIB (WT HIV-1 (IIIB)): 1492; SI K103N [7]: 1441; EC50 [7]: 11.7 ± 1.03 nM; RF K103N [7]: 1.0; SI E138K [8]: 547; EC50 [8]: 30.9 ± 5.26 nM; RF E138K [8]: 2.7
Cc1cc(-c2ccsc2)cc(C)c1Oc1nc(NC2CCN(Cc3ccc(S(N)(=O)=O)cc3)CC2)nc2ccsc12 [Compound 17, 4-((4-((4-(2,6-Dimethyl-4-(thiophen-3-yl)phenoxy)thieno[3,2-d]pyrimidin-2-yl)amino)piperidin-1-yl)methyl)benzenesulfonamide]	272	56.8 ± 3.85 nM	1.8	245	63.2 ± 16.1 nM	2.0	15400 ± 5860 nM	203	76 ± 17.2 nM	2.4	167 ± 14 nM	249	62 ± 5.83 nM	2.0	17	932 ± 88.4 nM	29.5	4800 ± 916 nM	3	31.6 ± 17.7 nM	SI IIIB (WT HIV-1 (IIIB)): 489; SI K103N [7]: 865; EC50 [7]: 17.9 ± 1.51 nM; RF K103N [7]: 0.6; SI E138K [8]: 295; EC50 [8]: 52.5 ± 11.3 nM; RF E138K [8]: 1.7
Cc1cc(-c2ccc(N(C)C)cc2)cc(C)c1Oc1nc(NC2CCN(Cc3ccc(C(N)=O)cc3)CC2)nc2ccsc12 [Compound 30, 4-((4-((4-((4'-(Dimethylamino)-3,5-dimethyl-[1,1′-biphenyl]-4-yl)oxy)thieno[3,2-d]pyrimidin-2-yl)amino)piperidin-1-yl)methyl)benzamide]	19	1250 ± 804 nM	7.1	40	585 ± 33.3 nM	3.3	23500 ± 380 nM	21	1120 ± 543 nM	6.3	473 ± 59 nM	42	556 ± 57.4 nM	3.2	< 1	> 23500 nM	> 133	> 23500 nM	<1	176 ± 26.4 nM	SI IIIB (WT HIV-1 (IIIB)): 134; SI K103N [7]: 135; EC50 [7]: 173 ± 46.3 nM; RF K103N [7]: 1.0; SI E138K [8]: 96; EC50 [8]: 245 ± 173 nM; RF E138K [8]: 1.4
Cc1cc(-c2cccc(N(C)C)c2)cc(C)c1Oc1nc(NC2CCN(Cc3ccc(S(N)(=O)=O)cc3)CC2)nc2ccsc12 [Compound 31, 4-((4-((4-((3'-(Dimethylamino)-3,5-dimethyl-[1,1′-biphenyl]-4-yl)oxy)thieno[3,2-d]pyrimidin-2-yl)amino)piperidin-1-yl)methyl)benzenesulfonamide]	51	2160 ± 298 nM	2.4	48	2300 ± 413 nM	2.6	110000 ± 1460 nM	46	2400 ± 256 nM	2.7	1680 ± 56 nM	55	1990 ± 46.5 nM	2.3	4	29600 nM	33.5	> 110000 nM	<1	882 ± 323 nM	SI IIIB (WT HIV-1 (IIIB)): 125; SI K103N [7]: 161; EC50 [7]: 685 ± 0.21 nM; RF K103N [7]: 0.8; SI E138K [8]: 112; EC50 [8]: 979 ± 185 nM; RF E138K [8]: 1.1
Cc1cc(-c2cccc(N(C)C)c2)cc(C)c1Oc1nc(NC2CCN(Cc3ccc(C(N)=O)cc3)CC2)nc2ccsc12 [Compound 32, 4-((4-((4-((3'-(Dimethylamino)-3,5-dimethyl-[1,1′-biphenyl]-4-yl)oxy)thieno[3,2-d]pyrimidin-2-yl)amino)piperidin-1-yl)methyl)benzamide]	25	783 ± 196 nM	4.8	32	626 ± 39.2 nM	3.8	19800 ± 4470 nM	17	1140 ± 99.2 nM	6.9	271 ± 16 nM	36	552 ± 45.6 nM	3.4	5	4300 ± 1540 nM	26.2	4660 ± 824 nM	4	163 ± 57.8 nM	SI IIIB (WT HIV-1 (IIIB)): 121; SI K103N [7]: 93; EC50 [7]: 212 ± 7.34 nM; RF K103N [7]: 1.3; SI E138K [8]: 100; EC50 [8]: 198 ± 34.2 nM; RF E138K [8]: 1.2
